Tests used:
[1] = tested on: Pseudomonas aeruginosa ATCC 27853; assay: MBEC assay, biofilm inhibition (prevention of biofilm formation), MBEC bioFILM PA panel; assay type: cell-based; design: MBEC-Biofilm Inhibition, Without compound 9 / MBEC-Biofilm Inhibition, Without compound 6 / MBEC-Biofilm Inhibition, Without compound 2 / MBEC-Biofilm Inhibition, Without compound 7 / MBEC-Biofilm Inhibition, With 0.01% compound 7 in 5% EtOH/PBS / MBEC-Biofilm Inhibition, without salt of compound 2 / MBEC-Biofilm Inhibition, with 0.1% salt of compound 2 / MBEC-Biofilm Inhibition, without salt of compound 6: unit not given here; conditions: for MBEC-Biofilm Inhibition, without salt of compound 2 / MBEC-Biofilm Inhibition, with 0.1% salt of compound 2: Table 9; for MBEC-Biofilm Inhibition, without salt of compound 2 / MBEC-Biofilm Inhibition, without salt of compound 6: antibiotic or antibiotic combination alone; for MBEC-Biofilm Inhibition, without salt of compound 2 / MBEC-Biofilm Inhibition, with 0.1% salt of compound 2 / MBEC-Biofilm Inhibition, without salt of compound 6 / MBEC-Biofilm Inhibition, with 0.1% salt of compound 6: value per component; for MBEC-Biofilm Inhibition, without salt of compound 2: separated by /; for MBEC-Biofilm Inhibition, with 0.1% salt of compound 2: antibiotic or combination plus 0.1% salt of compound 2; for MBEC-Biofilm Inhibition, without salt of compound 6 / MBEC-Biofilm Inhibition, with 0.1% salt of compound 6: Table 10; for MBEC-Biofilm Inhibition, with 0.1% salt of compound 6: antibiotic or combination plus 0.1% salt of compound 6; for MBEC-Biofilm Inhibition, Without compound 1 / MBEC-Biofilm Inhibition, Without compound 2 / MBEC-Biofilm Inhibition, Without compound 3 / MBEC-Biofilm Inhibition, Without compound 6 / MBEC-Biofilm Inhibition, Without compound 7 / MBEC-Biofilm Inhibition, Without compound 9: antibiotic alone
[2] = tested on: Pseudomonas aeruginosa ATCC 27853; assay: MBEC assay, biofilm elimination, MBEC bioFILM PA panel; assay type: cell-based; design: MBEC-Biofilm Elimination, Without compound 2 / MBEC-Biofilm Elimination, With 0.01% compound 2 in 5% EtOH/PBS / MBEC-Biofilm Elimination, Without compound 7 / MBEC-Biofilm Elimination, With 0.01% compound 7 in 5% EtOH/PBS / MBEC-Biofilm Elimination, Without compound 1 / MBEC-Biofilm Elimination, With 0.01% compound 1 in 5% EtOH/PBS / MBEC-Biofilm Elimination, without salt of compound 2 / MBEC-Biofilm Elimination, with 0.1% salt of compound 2: unit not given here; conditions: for MBEC-Biofilm Elimination, without salt of compound 2 / MBEC-Biofilm Elimination, with 0.1% salt of compound 2: Table 9; for MBEC-Biofilm Elimination, without salt of compound 2 / MBEC-Biofilm Elimination, without salt of compound 6: antibiotic or antibiotic combination alone; for MBEC-Biofilm Elimination, without salt of compound 2 / MBEC-Biofilm Elimination, with 0.1% salt of compound 2 / MBEC-Biofilm Elimination, without salt of compound 6 / MBEC-Biofilm Elimination, with 0.1% salt of compound 6: value per component; for MBEC-Biofilm Elimination, with 0.1% salt of compound 2: antibiotic or combination plus 0.1% salt of compound 2; for MBEC-Biofilm Elimination, without salt of compound 6 / MBEC-Biofilm Elimination, with 0.1% salt of compound 6: Table 10; for MBEC-Biofilm Elimination, with 0.1% salt of compound 6: antibiotic or combination plus 0.1% salt of compound 6; for MBEC-Biofilm Elimination, Without compound 1 / MBEC-Biofilm Elimination, Without compound 2 / MBEC-Biofilm Elimination, Without compound 3 / MBEC-Biofilm Elimination, Without compound 6 / MBEC-Biofilm Elimination, Without compound 7 / MBEC-Biofilm Elimination, Without compound 9: antibiotic alone
[3] = with 0.01% compound 2 in 5% EtOH/PBS

Compound	MBEC-Biofilm Inhibition, without salt of compound 2 [1]	MBEC-Biofilm Inhibition, with 0.1% salt of compound 2 [1]	MBEC-Biofilm Inhibition, without salt of compound 6 [1]	MBEC-Biofilm Inhibition, with 0.1% salt of compound 6 [1]	MBEC-Biofilm Inhibition, Without compound 1 [1]	MBEC-Biofilm Inhibition, Without compound 2 [1]	MBEC-Biofilm Inhibition, Without compound 3 [1]	MBEC-Biofilm Inhibition, Without compound 6 [1]	MBEC-Biofilm Inhibition, Without compound 7 [1]	MBEC-Biofilm Inhibition, Without compound 9 [1]	MBEC-Biofilm Inhibition, With 0.01% compound 1 in 5% EtOH/PBS [1]	MBEC-Biofilm Inhibition, With 0.01% compound 2 in 5% EtOH/PBS [1, 3]	MBEC-Biofilm Inhibition, With 0.01% compound 7 in 5% EtOH/PBS [1]	MBEC-Biofilm Inhibition, With 0.05% compound 3 in 5% EtOH/PBS [1]	MBEC-Biofilm Inhibition, With 0.05% compound 6 in 5% EtOH/PBS [1]	MBEC-Biofilm Inhibition, With 0.1% w/v compound 9 in PBS [1]	MBEC-Biofilm Elimination, without salt of compound 2 [2]	MBEC-Biofilm Elimination, with 0.1% salt of compound 2 [2]	MBEC-Biofilm Elimination, without salt of compound 6 [2]	MBEC-Biofilm Elimination, with 0.1% salt of compound 6 [2]	further results
NCC[C@H](O)C(=O)N[C@@H]1C[C@H](N)[C@@H](O[C@H]2O[C@H](CN)[C@@H](O)[C@H](O)[C@H]2O)[C@H](O)[C@H]1O[C@H]1O[C@H](CO)[C@@H](O)[C@H](N)[C@H]1O [AK, amikacin]	>8	>8	>8	>8	>8	>8	>8	>8	>8	>8	>8	2-8	>8	>8	>8	>8	>8	8	>8	8	MBEC ([1]; antibiotic or combination alone, concentrations in order of the combination): >8 µg/mL; MBEC, μg/mL +Compound 1 ([1]; antibiotic plus Compound 1): >8 µg/mL; MBEC, μg/mL +Compound 2 ([1]; antibiotic plus Compound 2): >8 µg/mL; MBEC, μg/mL +Compound 7 ([1]; antibiotic plus Compound 7): 2 to 8 µg/mL; (% reduction) +Compound 7 ([1]; reduction of antibiotic or combination required to prevent biofilm formation): > 50%; value in parentheses after MBEC-Biofilm Inhibition with 0.01% compound 2 (% reduction as in Table 2) [1, 3]: ≥ 50; MBEC-Biofilm Elimination, Without compound 1 [2]: >8; MBEC-Biofilm Elimination, Without compound 2 [2]: >8; MBEC-Biofilm Elimination, Without compound 3 [2]: >8; MBEC-Biofilm Elimination, Without compound 6 [2]: >8; MBEC-Biofilm Elimination, Without compound 7 [2]: >8; MBEC-Biofilm Elimination, Without compound 9 [2]: >8; MBEC-Biofilm Elimination, With 0.01% compound 1 in 5% EtOH/PBS [2]: >8; MBEC-Biofilm Elimination, With 0.01% compound 2 in 5% EtOH/PBS [2]: 8; MBEC-Biofilm Elimination, With 0.01% compound 7 in 5% EtOH/PBS [2]: 8; MBEC-Biofilm Elimination, With 0.05% compound 3 in 5% EtOH/PBS [2]: >8; MBEC-Biofilm Elimination, With 0.05% compound 6 in 5% EtOH/PBS [2]: >8; MBEC-Biofilm Elimination, With 0.1% w/v compound 9 in PBS [2]: >8
C[C@H]1[C@H](NC(=O)/C(=N\OC(C)(C)C(=O)O)c2csc(N)n2)C(=O)N1S(=O)(=O)O [AZT, astreonam]	>4	>4	>4	>4	>4	>4	>4	>4	>4	>4	>4	>4	>4	>4	>4	>4	>4	>4	>4	>4	MBEC-Biofilm Elimination, Without compound 1 [2]: >4; MBEC-Biofilm Elimination, Without compound 2 [2]: >4; MBEC-Biofilm Elimination, Without compound 3 [2]: >4; MBEC-Biofilm Elimination, Without compound 6 [2]: >4; MBEC-Biofilm Elimination, Without compound 7 [2]: >4; MBEC-Biofilm Elimination, Without compound 9 [2]: >4; MBEC-Biofilm Elimination, With 0.01% compound 1 in 5% EtOH/PBS [2]: >4; MBEC-Biofilm Elimination, With 0.01% compound 2 in 5% EtOH/PBS [2]: >4; MBEC-Biofilm Elimination, With 0.01% compound 7 in 5% EtOH/PBS [2]: >4; MBEC-Biofilm Elimination, With 0.05% compound 3 in 5% EtOH/PBS [2]: >4; MBEC-Biofilm Elimination, With 0.05% compound 6 in 5% EtOH/PBS [2]: >4; MBEC-Biofilm Elimination, With 0.1% w/v compound 9 in PBS [2]: >4
O=C(N[C@H](CO)[C@H](O)c1ccc([N+](=O)[O-])cc1)C(Cl)Cl [C, chloramphenicol]	>4	>4	>4	>4	>4	>4	>4	>4	>4	>4	>4	>4	>4	>4	>4	>4	>4	>4	>4	>4	MBEC-Biofilm Elimination, Without compound 1 [2]: >4; MBEC-Biofilm Elimination, Without compound 2 [2]: >4; MBEC-Biofilm Elimination, Without compound 3 [2]: >4; MBEC-Biofilm Elimination, Without compound 6 [2]: >4; MBEC-Biofilm Elimination, Without compound 7 [2]: >4; MBEC-Biofilm Elimination, Without compound 9 [2]: >4; MBEC-Biofilm Elimination, With 0.01% compound 1 in 5% EtOH/PBS [2]: >4; MBEC-Biofilm Elimination, With 0.01% compound 2 in 5% EtOH/PBS [2]: >4; MBEC-Biofilm Elimination, With 0.01% compound 7 in 5% EtOH/PBS [2]: >4; MBEC-Biofilm Elimination, With 0.05% compound 3 in 5% EtOH/PBS [2]: >4; MBEC-Biofilm Elimination, With 0.05% compound 6 in 5% EtOH/PBS [2]: >4; MBEC-Biofilm Elimination, With 0.1% w/v compound 9 in PBS [2]: >4
CC(C)(O/N=C(\C(=O)N[C@@H]1C(=O)N2C(C(=O)[O-])=C(C[n+]3ccccc3)CS[C@H]12)c1csc(N)n1)C(=O)O [CAZ, ceftazidime]	>4	>4	>4	>4	>4	>4	>4	>4	>4	>4	>4	>4	>4	>4	>4	>4	>4	>4	>4	>4	MBEC-Biofilm Elimination, Without compound 1 [2]: >4; MBEC-Biofilm Elimination, Without compound 2 [2]: >4; MBEC-Biofilm Elimination, Without compound 3 [2]: >4; MBEC-Biofilm Elimination, Without compound 6 [2]: >4; MBEC-Biofilm Elimination, Without compound 7 [2]: >4; MBEC-Biofilm Elimination, Without compound 9 [2]: >4; MBEC-Biofilm Elimination, With 0.01% compound 1 in 5% EtOH/PBS [2]: >4; MBEC-Biofilm Elimination, With 0.01% compound 2 in 5% EtOH/PBS [2]: >4; MBEC-Biofilm Elimination, With 0.01% compound 7 in 5% EtOH/PBS [2]: >4; MBEC-Biofilm Elimination, With 0.05% compound 3 in 5% EtOH/PBS [2]: >4; MBEC-Biofilm Elimination, With 0.05% compound 6 in 5% EtOH/PBS [2]: >4; MBEC-Biofilm Elimination, With 0.1% w/v compound 9 in PBS [2]: >4

Source: patent US20090016990A1, “Antimicrobial Compositions” (priority 2007, published 2009)
